ChEMBL document CHEMBL5385961, “In vitro and in vivo evaluation of novel chromeno[2,3-d]pyrimidinones as therapeutic agents for triple negative breast cancer” (RSC Med Chem, 2024)

Legend:
Format in all cases: functional
Conditions in all cases: read-out: Activity
Hs-578T [1] = test: Cytotoxicity against human Hs-578T cells assessed as cell viability at 10 uM incubated for 72 hrs by SRB assay relative to control
Hs-578T [2] = test: Cytotoxicity against human Hs-578T cells assessed as cell viability at 30 uM incubated for 72 hrs by SRB assay relative to control
MDA-MB-231 [3] = test: Cytotoxicity against human MDA-MB-231 cells assessed as cell viability at 10 uM incubated for 72 hrs by SRB assay relative to control
MDA-MB-231 [4] = test: Cytotoxicity against human MDA-MB-231 cells assessed as cell viability at 30 uM incubated for 72 hrs by SRB assay relative to control
MCF7 [5] = test: Cytotoxicity against human MCF7 cells assessed as cell viability at 10 uM incubated for 72 hrs by SRB assay relative to control
MCF7 [6] = test: Cytotoxicity against human MCF7 cells assessed as cell viability at 30 uM incubated for 72 hrs by SRB assay relative to control

Row | Compound | viability at 10 µM (Hs-578T [1]) [%] | viability at 30 µM (Hs-578T [2]) [%] | viability at 10 µM (MDA-MB-231 [3]) [%] | viability at 30 µM (MDA-MB-231 [4]) [%] | viability at 10 µM (MCF7 [5]) [%] | viability at 30 µM (MCF7 [6]) [%]
1 | COc1cccc2c1Oc1nc(-c3ccc(F)cc3)[nH]c(=O)c1C2 | 97.5 | 84.4 | 105 | 97.8 | 88.8 | 82.9
2 | COc1cccc(-c2nc3c(c(=O)[nH]2)Cc2cc(OC)ccc2O3)c1 | 88 | 77 | 69.3 | 41.2 | 73.1 | 49.8
3 | COc1cccc2c1Oc1nc(-c3ccccc3Cl)[nH]c(=O)c1C2 | 81.7 | 72.5 | 92.5 | 90.1 | 74.7 | 58.2
4 | COc1ccc2c(c1)Cc1c(nc(-c3ccccc3OC)[nH]c1=O)O2 | 87.5 | 65.6 | 85 | 65.9 | 90.6 | 70.4
5 | COc1cccc2c1Oc1nc(-c3ccccc3)[nH]c(=O)c1C2 | 91.1 | 75.8 | 91.8 | 89.2 | 91.2 | 88.5
6 | N#CC1=C(/N=C/Nc2ccccc2)Oc2ccc(Br)cc2C1CC(=O)c1ccccc1 (stereo unspecified) | 96.1 | 89.9 | 98 | 96 | 74.6 | 37.9
7 | Cc1ccc2c(c1)Cc1c(nc(-c3ccccc3)[nH]c1=O)O2 | 96 | 73.3 | 90.1 | 65.6 | 85.8 | 73.1
8 | COc1ccc(OC)c(-c2nc3c(c(=O)[nH]2)Cc2cc(Cl)ccc2O3)c1 | 91.7 | 92 | 91 | 78 | 69.2 | 62.6
9 | COc1cccc2c1Oc1nc(-c3cccc(Br)c3)[nH]c(=O)c1C2 | 66.8 | 40.6 | 92 | 80.8 | 78.4 | 52.4
10 | COc1ccc2c(c1)Cc1c(nc(-c3cc(OC)ccc3OC)[nH]c1=O)O2 | 95.9 | 96.5 | 60.9 | 49.7 | 63.7 | 57.8
11 | COc1cccc2c1Oc1nc(-c3cccc(O)c3)[nH]c(=O)c1C2 | 75.9 | 67.3 | 102 | 102 | 38 | 25.4
12 | COc1cccc2c1Oc1nc(-c3ccco3)[nH]c(=O)c1C2 | 99.8 | 90.7 | 92.8 | 85.8 | 98.9 | 100
13 | COc1ccc(OC)c(-c2nc3c(c(=O)[nH]2)Cc2cccc(OC)c2O3)c1 | 72.7 | 74 | 87.1 | 88.4 | 77.7 | 76.6
14 | Cc1cccc2c1Oc1nc(-c3ccccc3)[nH]c(=O)c1C2 | 81.3 | 62.1 | 32.6 | 15.9 | 34.7 | 23.8
15 | COc1cccc2c1Oc1nc(-c3ccc(C)cc3)[nH]c(=O)c1C2 | 86.8 | 63.3 | 99.2 | 91.1 | 78.5 | 77.2
16 | COc1cccc(-c2nc3c(c(=O)[nH]2)Cc2cccc(OC)c2O3)c1 | 99.3 | 85.3 | 70.5 | 51.6 | 93.6 | 71.3
